{
  "source": "patent US20220260587A1",
  "about": "“METHOD” (Worg Pharmaceuticals (Hangzhou) Co., Ltd., priority 2019, published 2022)",
  "key": {"[1]": {"molecular_target": "MHCII (HLA-DR2) with bound CLIP (MHCII-CLIP) (Homo sapiens, UniProt P01903+P01911)", "sequence (P01903 26-254)": "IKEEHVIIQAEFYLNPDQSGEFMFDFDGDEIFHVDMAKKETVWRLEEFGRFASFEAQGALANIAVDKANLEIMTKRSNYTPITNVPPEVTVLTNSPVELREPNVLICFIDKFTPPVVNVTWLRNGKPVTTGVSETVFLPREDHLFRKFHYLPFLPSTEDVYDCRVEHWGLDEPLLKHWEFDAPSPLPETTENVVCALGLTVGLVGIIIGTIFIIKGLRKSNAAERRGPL", "sequence (P01911 30-227 limits assumed)": "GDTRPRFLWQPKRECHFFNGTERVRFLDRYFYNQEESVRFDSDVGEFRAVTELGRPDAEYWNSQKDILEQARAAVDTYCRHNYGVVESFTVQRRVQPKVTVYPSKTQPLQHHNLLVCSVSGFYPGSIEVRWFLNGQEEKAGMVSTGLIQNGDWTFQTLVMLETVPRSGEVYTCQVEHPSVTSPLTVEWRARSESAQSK", "experiment": "CLIP displacement assay", "type": "cell-based", "settings": "MBP-specific T cell line 24 hours", "procedure": "Response of MBP-specific T cell line to HLA-DR2 monomers following peptide exchange. Biotinylated HLA-DR2 (DRB1*1501) monomers, with the CLIP peptide bound, were attached to neutravidin coated 96 well plates. Wells were incubated with the indicated concentration of MBP 83-99, a dominant HLA-DR2 restricted epitope of MBP, for 16 hours and the plates washed. Control wells were coated with the DR2 monomer pre-loaded with the MBP 83-99 peptide. A T cell line specific for MBP was incubated with the monomers at 37° C. for 24 hours and response assessed by measurement of secreted IL-2.\nMHCII (HLA-DR2) with bound CLIP (MHCII-CLIP) was affixed to wells of a 96-well plate using neutravidin and biotin. In particular, 96-well plates were coated with 15 μg/ml neutravidin in PBS overnight at 4° C. Plates were washed twice with wash buffer (0.1% BSA/PBS) and blocked with 1% BSA in PBS for 2 hours at room temperature. Plates were washed twice with wash buffer and 0.125 μg/ml of biotin-MHCII-CLIP in PBS was added for a 2-hour incubation at room temperature in a humid atmosphere. Plates were washed 4 times with wash buffer, leaving wells coated in MHCII-CLIP. Positive control wells were coated with MHCII with bound MBP 83-99 (instead of CLIP). […]\nT cell activation was assessed by measuring secreted IL2."}, "MHCII on dendritic cells": {"test_system": "MHCII on dendritic cells", "experiment": "In vivo MHCII loading assay", "parameters": "species or system HLA-DRtg mice", "settings": "for CD4+ T cell activation (IFNγ) by dendritic cells loaded in vivo: 100 μg peptide subcutaneously, spleen CD11c+ cells 2 hours post injection, co-culture 72 hours, FIG. 4", "procedure": "Response of peptide-specific CD4^+ T cells towards peptide loaded in vivo on dendritic cells. […] 2 h post injection, spleens were dissected and CD11c^+ cells (dendritic cells) were isolated. These CD11c^+ cells were co-cultured with peptide-specific CD4+ cells for 72 h at 37° C. IFNγ was measured in the supernatant of these cultures to evaluate the response to peptide by the CD4^+ T cells.\nIn particular, HLA-DRtg mice were injected with 100 μg of peptide in 100 μl PBS subcutaneously in the flank. Control animals received a subcutaneous injection of 100 μl PBS. After 2 hours, spleens were harvested and single-cell suspensions were made. CD11c^+ cells (splenic dendritic cells) were positively selected using CD11c microbeads according to the manufacturer's instructions (Miltenyi Biotec, Bergisch Gladbach, Germany). Average purities of >92% were reached.\n1×10^5 CD11c^+ cells were co-cultured with 1×10^5 CD4^+ cells (primary T cells) in round bottom 96-well plates in X-vivo 15 medium (supplemented with 2 mM L-glutamine, 50 U/mL penicillin and 50 U/mL streptomycin; Lonza). The CD4^+ cells were isolated from HLA-DRtg mice that were immunised subcutaneously in the base of the tail with 50 μg peptide emulsified in CFA (peptide/CFA). Ten days after immunisation, draining lymph nodes (LN) and spleens were harvested. LN cells and splenocytes were isolated and CD4^+ T cells were isolated by negative selection using Magnisort Mouse CD4 Isolation kit (ThermoFisher Scientific) according to the manufacturer's instructions.\nAfter 72 hours, supernatant of the CD11c^+-CD4^+ co-cultures was collected. CD4^+ T cell activation was analysed by IFNγ ELISA (R&D Systems, Abingdon, UK). In a parallel experiment, CD4^+ T cell responses towards peptide added in vitro were assessed to make sure the T cells recognize the peptides presented by the CD11c^+ cells."}, "MHCII": {"test_system": "MHCII", "settings": "test peptides of the competition assay; cited from earlier work"}, "[2]": {"test_system": "response to protein antigen (SAg) in lymph node and spleen cells", "experiment": "Ex vivo tolerance assay", "type": "in vivo, HLA-DR transgenic mice", "settings": "dose-escalating subcutaneous injections (0,1; 1; 10 and 3×100 μg), IFNg response to SAg, FIG. 5", "procedure": "Response to protein antigen in lymph nodes (A) and spleens (B) of peptide-treated and non-treated mice. HLA-DR transgenic mice were treated with a dose-escalating regime of subcutaneous injections (0,1; 1; 10 and 3×100 μg every other day) of a tolerogenic (peptide Q) or non-tolerogenic (peptide P) peptide, or control injections (PBS). Afterwards, mice were immunized with peptide antigen in CFA and 10 days later, lymph nodes and spleens were dissected. Lymph node and spleen cells were cultured in vitro for 3 days at 37° C. in the presence of protein antigen (SAg) or positive control (PPD). The response of the cells towards the protein antigen was evaluated by measuring IFNg levels in supernatant of the cultures. *p<0.05\nHLA-DRtg mice were injected subcutaneously in the flank region with 0.1 μg, 1 μg and 10 μg of peptide on days −15, −13 and −11 respectively, followed by 3 injections of 100 μg peptide on days −8, −6 and −4 (dose escalation schedule). On day 0, the mice were immunised subcutaneously in the base of the tail with 50 μg antigen (parental peptide) emulsified in CFA (peptide/CFA).\nTen days after immunisation, draining lymph nodes (LN) and spleens were harvested. […]\nIFNγ concentrations in supernatants were assessed by cytokine ELISA (R&D Systems, Abingdon, UK) and cell activation was measured."}, "EAE": {"test_system": "EAE", "settings": "cited from earlier work"}},
  "data": [
    {"substance": "ENPVVHFFKNIVTPRIP [MBP 83-99]", "values": [
      {"measurement": "T cell activation (secreted IL2)", "setting": "[1]; MBP 83-99 at 3 μM added to MHCII-CLIP (CLIP monomer) for 16 hours", "result": "T cells are activated"},
      {"measurement": "T cell activation (secreted IL2)", "setting": "[1]; MBP 83-99 at 30 μM added to MHCII-CLIP (CLIP monomer) for 16 hours", "result": "T cells are activated"}
    ]},
    {"substance": "GILVSYQIKVK (H-GILVSYQIKVK-NH2) [Peptide N]", "values": [
      {"measurement": "CD4+ T cell activation (IFNγ) by dendritic cells loaded in vivo", "setting": "MHCII on dendritic cells", "result": "did not cause T cell activation"},
      {"measurement": "HLA-DR binding", "setting": "MHCII on dendritic cells; designation in legend of FIG. 4", "result": "HLA-DR non-binding"}
    ]},
    {"substance": "GLKMFPDLTKVYSTD (H-GLKMFPDLTKVYSTD-NH2) [Peptide L]", "values": [
      {"measurement": "affinity for MHCII (known)", "setting": "MHCII", "result": "good affinity"}
    ]},
    {"substance": "KKEIFKKISRDKSVTIYLEKK (H-KKEIFKKISRDKSVTIYLEKK-NH2) [Peptide M]", "values": [
      {"measurement": "affinity for MHCII (known)", "setting": "MHCII", "result": "poor affinity"}
    ]},
    {"substance": "KKIFKKISRDKSVTIYLKK (H-KKIFKKISRDKSVTIYLKK-NH2) [Peptide P]", "values": [
      {"measurement": "tolerogenicity", "setting": "[2]", "result": "non-tolerogenic"}
    ]},
    {"substance": "KKKGILVSYQIKVKKKK (H-KKKGILVSYQIKVKKKK-NH2) [Peptide 0]", "values": [
      {"measurement": "CD4+ T cell activation (IFNγ) by dendritic cells loaded in vivo", "setting": "MHCII on dendritic cells", "result": "did"}
    ]},
    {"substance": "KKKIFKKISRDKSVTIYLKKK (H-KKKIFKKISRDKSVTIYLKKK-NH2) [Peptide Q]", "values": [
      {"measurement": "tolerogenicity", "setting": "[2]", "result": "tolerogenic"}
    ]},
    {"substance": "LILLPLLANNRERRGIALDGKIKHEDTNLASSTIIKEG [Peptide K]", "values": [
      {"measurement": "affinity for MHCII (known)", "setting": "MHCII", "result": "poor affinity"}
    ]},
    {"substance": "MBP peptide 89-101: myelin basic protein (MBP) peptide 89-101, immunodominant antigen after immunisation (PHLIRLFSRDAPG; UniProt P02686 89-101, looked up, fragment)", "values": [
      {"measurement": "inducing tolerance", "setting": "EAE; administered in solution", "result": "ineffective"},
      {"measurement": "immunogen: priming for T cell reactivity and induction of EAE", "setting": "EAE; after immunisation", "result": "very effective immunogen"}
    ]},
    {"substance": "NPILLWQPIPVHTVPLSEDQ (H-NPILLWQPIPVHTVPLSEDQ-NH2) [Peptide J, reference compound]", "values": [
      {"measurement": "affinity for MHCII (known)", "setting": "MHCII", "result": "good affinity"}
    ]}
  ]
}
